Source: ChEMBL document CHEMBL6109115, “Rapid discovery of pseudorabies virus inhibitors repurposed from the antimicrobial agent ciprofloxacin” (Eur J Med Chem, 2025)
In brackets after ≈: the same amount, converted by molar mass. Activity calls are given as the source filed them. No cut-off for these calls is given here.

What was measured:
[1] = tested on: Suid alphaherpesvirus 1; test: Antiviral activity against Suid alphaherpesvirus 1 infected in pig PK-15 cells assessed as inhibition of replication at 1 uM pretreated with compound for 2 hrs followed by viral infection and measured after 48 hrs (reference value: 99.6%); format: functional; details: Suid alphaherpesvirus 1, PK-15, in Sus scrofa, time 50 hrs
[2] = tested on: Suid alphaherpesvirus 1; test: Antiviral activity against Suid alphaherpesvirus 1 infected in pig PK-15 cells assessed as inhibition of viral replication pretreated with compound for 2 hrs followed by viral infection and measured after 24 hrs by ELISA analysis; format: functional, organism-based; details: Suid alphaherpesvirus 1, PK-15
[3] = tested on: Suid alphaherpesvirus 1; test: Antiviral activity against Suid alphaherpesvirus 1; format: functional, organism-based
[4] = Cytotoxicity against pig PK-15 cells; format: toxicity, cell-based, Sus scrofa
[5] = tested on: Suid alphaherpesvirus 1; test: Antiviral activity against Suid alphaherpesvirus 1 infected in pig PK-15 cells assessed as inhibition of replication pretreated with compound for 2 hrs followed by viral infection and measured after 48 hrs; format: functional, organism-based; details: Suid alphaherpesvirus 1, PK-15
[6] = tested on: Suid alphaherpesvirus 1; test: Antiviral activity against Suid alphaherpesvirus 1 infected in pig PK-15 cells assessed as inhibition of viral growth; format: functional; details: Suid alphaherpesvirus 1, in Sus scrofa
[7] = Cytotoxicity against pig PK-15 cells assessed as cell viability incubated for 72 hrs by CCK-8 assay; format: toxicity, cell-based, Sus scrofa
[8] = MRT (0 to t) in male Kunming mouse at 30 mg/kg, ip measured up to 8 hrs by LC-MS/MS analysis; format: ADME, organism-based; details: in vivo
[9] = Cmax in male Kunming mouse at 30 mg/kg, ip measured up to 8 hrs by LC-MS/MS analysis; format: ADME, organism-based; details: in vivo
[10] = tested on: Suid alphaherpesvirus 1; test: Antiviral activity against Suid alphaherpesvirus 1 infected in Kunming mouse assessed as survival at 30 mg/kg, ip measured at 7.3 days; format: functional, organism-based; details: time 7.3 day
[11] = AUC (0 to infinity) in male Kunming mouse at 30 mg/kg, ip measured up to 8 hrs by LC-MS/MS analysis; format: ADME, organism-based; details: in vivo
[12] = tested on: Suid alphaherpesvirus 1; test: Antiviral activity against Suid alphaherpesvirus 1 infected in Kunming mouse assessed as inhibition of viral copy numbers in brain at 30 mg/kg, ip measured on day 6 by qPCR analysis; format: functional; details: Suid alphaherpesvirus 1, 144 h, time 6 day
[13] = tested on: Suid alphaherpesvirus 1; test: Antiviral activity against Suid alphaherpesvirus 1 infected in pig PK-15 cells assessed as inhibition of replication at >200 nM pretreated with compound for 2 hrs followed by viral infection and measured after 48 hrs; format: functional; details: time 50 hrs
[14] = tested on: Suid alphaherpesvirus 1; test: Antiviral activity against Suid alphaherpesvirus 1 infected in Kunming mouse assessed as reduction in viral copy numbers in blood at 30 mg/kg, ip measured on day 6 by qPCR analysis; format: functional, organism-based; details: time 6.0 day
[15] = Tmax in male Kunming mouse at 30 mg/kg, ip measured up to 8 hrs by LC-MS/MS analysis; format: ADME, organism-based; details: in vivo
[16] = AUC (0 to t) in male Kunming mouse at 30 mg/kg, ip measured up to 8 hrs by LC-MS/MS analysis; format: ADME, organism-based; details: in vivo
[17] = tested on: Suid alphaherpesvirus 1; test: Antiviral activity against Suid alphaherpesvirus 1 infected in Kunming mouse assessed as reduction in viral copy numbers in brain at 30 mg/kg, ip measured on day 6 by qPCR analysis; format: functional; details: time 6 day
[18] = Half life in male Kunming mouse at 30 mg/kg, ip measured upto 8 hrs by LC-MS/MS analysis; format: ADME, organism-based; details: in vivo
[19] = MRT (0 to infinity) in male Kunming mouse at 30 mg/kg, ip measured up to 8 hrs by LC-MS/MS analysis; format: ADME, organism-based; details: in vivo
[20] = tested on: Suid alphaherpesvirus 1; test: Antiviral activity against Suid alphaherpesvirus 1 infected in pig PK-15 cells infected for 1 hr followed by compound addition and measured after 48 hrs; format: functional, organism-based; details: Suid alphaherpesvirus 1, PK-15
[21] = tested on: Suid alphaherpesvirus 1; test: Antiviral activity against Suid alphaherpesvirus 1 infected in pig PK-15 cells; format: functional, organism-based; details: Suid alphaherpesvirus 1, PK-15
[22] = tested on: Suid alphaherpesvirus 1; test: Antiviral activity against Suid alphaherpesvirus 1 infected in pig PK-15 cells assessed as inhibition of viral replication; format: functional, organism-based; details: Suid alphaherpesvirus 1, PK-15

CCn1cc(C(=O)O)c(=O)c2cc(F)c(N3CCNCC3)cc21 [NORFLOXACIN] showed an inhibition at 1 µM [1] of 66%.
C[C@]12CC[C@H](O)C[C@H]1CC[C@@H]1[C@@H]2CC[C@]2(C)[C@@H](c3ccc(=O)oc3)CC[C@]12O [BUFALIN] showed an EC50 [2] of 33 nM.
For Cn1cc(C(=O)NCc2ccc(Cl)cc2)c(=O)c2cc(CN3CCOCC3)ccc21, the EC50 [3] was 0.1 nM, the CC50 [4] was 45200 nM and the EC50 [5] was 1.45 nM. For the same compound, the MIC80 [6] was 0.32 nM (≈ 0.136 ng/mL).
For CCn1cc(C(=O)NCc2cccc(Cl)c2)c(=O)c2cc(F)c(N3CCNCC3)cc21, the EC50 [5] was 0.85 nM and the MIC80 [6] was 8 nM (≈ 3.54 ng/mL).
Compound O=C(NCc1cc(Cl)ccc1F)c1cn(Cc2ccccc2)c2cc(N3CCNCC3)c(F)cc2c1=O has an EC50 [5] of 2.11 nM and an MIC80 [6] of 40 nM (≈ 20.9 ng/mL).
O=C(NCc1ccc(Cl)c(Cl)c1)c1cn(C2CC2)c2cc(N3CCNCC3)c(F)cc2c1=O gave an EC50 [5] of 0.25 nM and an MIC80 [6] of 8 nM (≈ 3.92 ng/mL).
O=C(NCc1ccc(Cl)cc1)c1cn(C2CC2)c2cc(N3CCNCC3)c(F)cc2c1=O gave a CC50 at 72 h [7] of 9300 nM, an EC50 [5] of 2.21 nM and an MIC80 [6] of 200 nM (≈ 91 ng/mL).
In the case of O=C(NCc1cc(Cl)ccc1F)c1cn(-c2ccccc2)c2cc(N3CCNCC3)c(F)cc2c1=O, the MRT last at 8 h [8] is reported as 3.15 h, the Cmax [9] is reported as 342 ng/mL and the Activity [10] is reported as “Active”. The AUC(0-inf) [11] was 1330 ng·h/mL, the inhibition in vivo at 30 mg/kg [12] was > 99% and the “inhibition (INH)” value [13] was “<=99.5%”. For the same compound, the Activity [14] was “Active”, the EC50 [5] was 0.29 nM and the Tmax [15] was 1.5 h. For the same compound, the AUC(0-t) at 8 h [16] was 1020 ng·h/mL, the Activity [17] was 280 g⁻¹ and the half-life [18] was 3.24 h. For the same compound, the MRT inf [19] was 5.34 h and the MIC80 [6] was 1.6 nM (≈ 0.814 ng/mL).
Work on CCCCCC/C=C\CCCCCCCc1cccc(O)c1C(=O)O [GINGKOLIC ACID] yielded an EC50 [3] of 3400 nM.
With O=C(NCc1cccc(Cl)c1)c1cn(C2CC2)c2cc(N3CCNCC3)c(F)cc2c1=O the EC50 [5] was 10.2 nM and the MIC80 [6] was 40 nM (≈ 18.2 ng/mL).
Compound Oc1ccc(O)cc1 [HYDROQUINONE] has an EC50 [3] of 8300 nM.
Cc1cc(O)c2c(c1)C(=O)c1cc(O)cc(O)c1C2=O [EMODIN] showed an EC50 [20] of 470 nM.
Work on O=C(NCc1cc(Cl)ccc1Cl)c1cn(C2CC2)c2cc(N3CCNCC3)c(F)cc2c1=O yielded an EC50 [5] of 0.71 nM and an MIC80 [6] of 8 nM (≈ 3.92 ng/mL).
For O=C(NCc1cc(Cl)ccc1F)c1cn(C2CC2)c2cc(N3CCNCC3)c(F)cc2c1=O, the CC50 at 72 h [7] was > 100000 nM, the “inhibition (INH)” value [13] was “<=99.5%” and the EC50 [5] was 0.21 nM. It also gave an MIC80 [6] of 1.6 nM (≈ 0.757 ng/mL).
Compound Oc1cc(O)cc(/C=C/c2ccc(O)c(O)c2)c1 [PICEATANNOL] has an EC50 [21] of 126 nM.
With O=C(O)c1cn(C2CC2)c2cc(N3CCNCC3)c(F)cc2c1=O [CIPROFLOXACIN] the inhibition at 1 µM [1] was 65%.
CN(C)CCNC(=O)c1cn(C)c2ccc(CN3CCOCC3)cc2c1=O gave a CC50 [4] of 344000 nM and an EC50 [22] of 0.014 nM.
O=C(NCc1cc(Cl)ccn1)c1cn(C2CC2)c2cc(N3CCNCC3)c(F)cc2c1=O gave an EC50 [5] of 0.39 nM and an MIC80 [6] of 8 nM (≈ 3.65 ng/mL).
